Assay results: patent US8846951B2 (AbbVie Inc., priority 2009, dated 2014)
Entries after “also recorded” stand apart in the source; their conditions may differ.

Key:
[1] = tested on: conditioned avoidance response (CAR) behavior; assay: Conditioned avoidance responding in rats; type: in vivo, rat; settings: male Wistar rats
Method: The fact that antipsychotics have the unique ability to selectively suppress CAR behavior, made the CAR test a useful tool for the screening of new, potentially antipsychotic compounds. […] Animals Male Wistar rats (9-11 weeks old, Charles River, Germany) were pair-housed and allowed ad-libitum access to food and water. A 12-hour light/dark cycle was imposed with lights-on period between 0530 and 1730 hours. All testing occurred between 700 and 1300 hours. All procedures were approved by Abbott Institutional Animal Care and Use Committee (USA) or Animal Welfare Officer (Germany) and were conducted in accordance with the National Institutes of Health Guide for Care and Use of Laboratory Animals guidelines and applicable national laws in the facilities accredited by the Association for the Assessment and Accreditation of Laboratory Animal Care. Methods Wistar rats are exposed to a conditioned stimulus CS (a 2.9-kHz tone of 10 second duration), which is a signal for the animal that it must move into the other chamber in order to avoid an immediately ensuing footshock US (0.5 mA, 10 second, tone continues during shock presentation). Once the shock has begun, the animal can still escape it by moving to the other chamber. Each session is limited to a maximum of 40 trials (intertrial interval 10-90 seconds). The animals generally learn quickly to change chambers upon the conditioned stimulus and thus avoid further shocks. Scored are: • Avoided responses=crossings into other compartment within 10 seconds of tone presentation; • Escaped responses=crossings between 10-20 seconds of tone presentation; • Failures=crossings after cessation of tone-shock presentation or no crossing. […] At the test sessions (=CS-shock pairings), animals are pre-treated with a test drug or vehicle 30 minutes before commencement of the session.

[2] = tested on: AMP- or PCP-induced hyperactivity; assay: Psychostimulant (AMP or PCP)-induced hyperlocomotion in mice; type: in vivo, mouse
Source text: (x) Assessment of Effects on Psychostimulant-Induced Hyperlocomotion in Mice
In both humans and experimental animals amphetamine (AMP) profoundly affects motor activity, sensorimotor function, sleep, attention, aggressive and sexual behaviors, learning and memory, operant behaviors, appetite and food intake. In addition, amphetamine induces psychotic reactions in normal individuals and exacerbates symptoms of schizophrenia in patients. In experimental animals several distinct behaviors are considered to be correlates of amphetamine psychosis. For example, amphetamine-induced hyperactivity in rodents is believed to model the psychotic symptoms of schizophrenia. Reversal of these behaviors is used to predict potential antipsychotic activity of drugs in pre-clinical studies.
In humans, phencyclidine (PCP) is known to produce a syndrome of behavioral effects which have many characteristics in common with schizophrenia. Therefore, antagonism of PCP effects might be evidence for antipsychotic efficacy of a compound.
Male NMRI mice (5-week old, Janvier, France) or C57BL/6J mice (6-week old, Janvier, France) were group housed and allowed ad-libitum access to food and water. A 12 hour light/dark cycle was imposed with lights-on period between 0530 and 1730 hours. All testing occurred between 700 and 1300 hours. All procedures were approved by Abbott Institutional Animal Care and Use Committee (USA) or Animal Welfare Officer (Germany) and were conducted in accordance with the National Institutes of Health Guide for Care and Use of Laboratory Animals guidelines and applicable national laws in the facilities accredited by the Association for the Assessment and Accreditation of Laboratory Animal Care.
On the day of experiment, animals were brought from the animal facility into the experimental room and were allowed to acclimatize for at least 30 minutes. Animals were then placed in the test cages for a habituation period of 60 minutes. The animals were then injected ip with the test compound and returned to the test cage. 30 Minutes later the mice were injected with d-amphetamine (2.0 mg/kg, AMP, Sigma, #A5880, sc) or phencyclidine (2.0 mg/kg, PCP, Sigma, #P3029, sc) Sigma, and returned to the test cages for 90 minutes. Each treatment group consisted of 8-10 animals. The data was acquired by Cage rack Photobeam system (SDI, San Diego Instruments, CA). The analyzed data were: fine movements, ambulations and total movements (fine+ambulations). Data was subjected to one- or two-way distribution-free ANOVA followed by Dunnett's and Tukey's post hoc tests.

SHR pups = assay: 5-trial inhibitory avoidance/impulsivity model in pups of spontaneously hypertensive rat; type: in vivo; settings: sc 1, 3 and 10 mg/kg, acute, compared to vehicle
Source text: (ix) 5-Trial Inhibitory Avoidance/Impulsivity Model in the Pups of Spontaneously Hypertensive Rat
However, the adult rats have spontaneous hypertension which may confound behavioral assessment. The juvenile SHRs were used in the current study since these pups show similar behavioral deficits while having not developed hypertension. The aim was to investigate the efficacy of 5-HT2c agonists in SHR pups in an inhibitory avoidance model, as indication of enhancement of inhibitory control/or anti-impulsivity.
SHR pups at postnatal day 21-28 were sc dosed with either vehicle or Example 115 (1, 3, and 10 mg/kg; dissolved in tartaric acid/PH4-6) 30 minutes prior to the test. Upon testing initiation, pups were placed into the light side of a computer controlling 2-chambered compartment. The latency to enter the adjoining dark chamber was recorded, and an inescapable footshock (0.1 mA, 1 second duration) was presented to the pup. The pup was removed, placed back into the home cage for approximately 1 minute, and the process repeated for a total of 5 trials. The dependent variable used for data analysis was the total transfer latency of trial 2 to trial 5.

CN1C[C@@H]2CNC(=O)c3cc(-c4ccc(F)cc4)ccc3[C@H]2C1 [Example 115, (3aS,10bS)-8-(4-Fluorophenyl)-2-methyl-1,2,3,3a,4,5-hexahydrobenzo[e]pyrrolo[3,4-c]azepin-6(10bH)-one]
conditioned avoidance behavior (avoided responses) ([1]; acute, 30 minutes before session): significantly suppressed conditioned avoidance behavior | number of failures ([1]; indicator of sedation or extrapyramidal side effects): without affecting the number of failures | spontaneous activity ([2]; after ip test compound, before psychostimulant): without affecting spontaneous activity | AMP-induced hyperactivity ([2]; test compound ip 30 min before d-amphetamine 2.0 mg/kg sc): attenuated AMP-induced hyperactivity in mice significantly and in a dose dependent manner; also recorded: attenuating the affect of d-amphetamine (AMP) | total transfer latency of trial 2 to trial 5 (SHR pups): dose-dependent increase in transfer latencies; also recorded: dose-dependent improvement in 5-trial inhibitory avoidance scores
